“And” between values parts separate entries of the source, which are not always exact repeats. Equal entries are not always repeated. Marks after values point to notes of the source that are not given here.
Tests used:
[1] = cited from earlier work
[2] = serum concentrations of phenobarbital and bromide
[3] = system: dogs with newly diagnosed idiopathic epilepsy; experiment: monotherapy in dogs with newly diagnosed idiopathic epilepsy (AWD 131-138 pilot study; retrospective phenobarbital, primidone); conditions: for duration of the ictus before treatment, median / duration of the ictus before treatment, time range / duration of the ictus during treatment, median / duration of the ictus during treatment, time range: grand mal seizures; for duration of the ictus before treatment, median / duration of the ictus before treatment, time range / Seizure frequency before treatment, all dogs / Seizure frequency before treatment, without nonresponders: baseline before monotherapy; for % reduction of seizures in responders: mean ± SEM; for Seizure frequency before treatment, all dogs / Seizure frequency before treatment, without nonresponders / Seizure frequency during treatment, all dogs / Seizure frequency during treatment, without nonresponders: median group value; for Seizure frequency during treatment, all dogs / Seizure frequency during treatment, without nonresponders: asterisk = P<0.05 vs before; for shortening of the postictal phase, mean: in the dogs with shortening; for dogs with unchanged or increased seizure severity: owners record
[4] = system: dogs with chronic idiopathic epilepsy; experiment: add-on therapy in dogs with chronic idiopathic epilepsy not responding to phenobarbital or primidone; format: in vivo, dog
[5] = 44 newly diagnosed dogs, phenobarbital 4 to 13 mg/kg p.o. daily
[6] = eight chronic epilepsy dogs (potassium bromide add-on group), phenobarbital 6 to 17 mg/kg p.o. daily
[7] = eleven chronic epilepsy dogs (later AWD add-on), phenobarbital 6 to 23 mg/kg p.o. daily
[8] = add-on to phenobarbital or primidone
[9] = grand mal seizures, add-on to phenobarbital or primidone
[10] = grand mal seizures, on phenobarbital or primidone before add-on
[11] = median, on phenobarbital/primidone before add-on
[12] = potassium bromide 40-60 mg/kg p.o. daily, add-on

In the case of `CCC1(c2ccccc2)C(=O)NC(=O)NC1=O` [Phenobarbital, phenobarbital], the “phenobarbital serum concentration, reference values” ([1]; established by FARNBACH 1984) is given as 45 µg/mL, the “serum concentration of phenobarbital, mean” value [2, 5] is given as 18400 ng/mL and the “serum concentration of phenobarbital, median” value [2, 5] is given as 17200 ng/mL. The “serum concentration, mean” value [2, 6] was 27200 ng/mL, the “serum concentration, median” value [2, 6] was 24600 ng/mL and the “serum concentration of phenobarbital, mean” value [2, 7] was 32000 ng/mL. For the same molecule, the “serum concentration of phenobarbital, median” value [2, 7] was 26500 ng/mL, the “duration of the ictus before treatment, median” value [3] was 4.0 min and the “duration of the ictus before treatment, time range” value [3] was 0.5 to 10 min. The “duration of the ictus during treatment, median” value ([3]; monotherapy) was 5.0 min, the “duration of the ictus during treatment, time range” value ([3]; monotherapy) was 0.5 to 10 min and the “% reduction of seizures in responders” value ([3]; monotherapy) was 72.4 ± 4.6%. The “Seizure frequency before treatment, all dogs” value [3] was 1.6 seizures/month, the “Seizure frequency before treatment, without nonresponders” value [3] was 1.68 seizures/month and the “Seizure frequency during treatment, all dogs” value ([3]; monotherapy) was 0.59* seizures/month. The “Seizure frequency during treatment, without nonresponders” value ([3]; monotherapy) was 0.42* seizures/month, the “dogs that died or were euthanized in status epilepticus” value (“dogs that died or were euthanized” for short) ([3]; monotherapy) was 10 and the “dogs with focal seizures instead of grand mal seizures during treatment” value ([3]; monotherapy) was 6. The “number of dogs with decreased duration of the ictus” value ([3]; monotherapy) was 4, the “number of dogs with shortened postictal phase” value ([3]; monotherapy) was 8 and the “owners reporting subjectively a decrease of seizure severity” value ([3]; monotherapy) was 24. For the same molecule, the “postictal phase during treatment, mean” value ([3]; monotherapy) was 3 h, the “shortening of the postictal phase, mean” value ([3]; monotherapy) was 43% and the “dogs with unchanged or increased seizure severity” value ([3]; monotherapy) was 11.
In the case of `[Br-].[K+]` [Potassium bromide, potassium bromide, reference compound], the “comparison of antiepileptic efficacy between the two add on treatment schedules” value ([4]; Fisher's exact test) is reported as “did not indicate any significant difference”, the “dogs in which clusters did not occur anymore” value ([4]; add-on) is reported as 6 and the “dogs with worsening of seizure severity reported by owner” value ([4]; add-on) is reported as “one”. For the same molecule, the “number of dogs with decreased duration of the ictus” value ([4]; add-on) was 3, the “number of dogs with shortened postictal phase” value ([4]; add-on) was “two” and the “postictal phase during treatment, mean” value ([4]; add-on) was 5.5 h. The “dogs in which a seizure reduction was observed” value [4, 8] was 7 of 12, the “dogs that died or were euthanized” value [4, 8] was 6 and the “Number of seizure-free dogs” value ([4]; add-on to phenobarbital/primidone) was 0/12. The “shortening of the postictal phase” value ([4]; add-on, in the dogs with shortening) was 50% and 75%, the “duration of the ictus during treatment, median” value [4, 9] was 2.0 min and the “duration of the ictus during treatment, time range” value [4, 9] was 1 to 10 min. The “duration of the ictus before treatment, median” value [4, 10] was 3.0 min, the “duration of the ictus before treatment, time range” value [4, 10] was 1 to 13 min and the “% reduction of seizures in responders” value ([4]; mean ± SEM, add-on to phenobarbital/primidone) was 59.7 ± 5.9%. For the same molecule, the “Seizure frequency during treatment, all dogs” value ([4]; median, add-on to phenobarbital/primidone) was 1.9 seizures/month, the “Seizure frequency during treatment, without nonresponders” value ([4]; median, add-on to phenobarbital/primidone, asterisk = P<0.05) was 0.8* seizures/month and the “Seizure frequency before treatment, all dogs” value [4, 11] was 3.0 seizures/month. The “Seizure frequency before treatment, without nonresponders” value [4, 11] was 3.0 seizures/month, the “bromide concentration, therapeutic range” value ([1]; established by PODELL and FENNER 1993) was 1.0 to 2.0 mg/mL and the “Bromide concentration, mean” value [2, 12] was 1.0 mg/mL. For the same molecule, the “Bromide concentration, median” value [2, 12] was 0.9 mg/mL.
In the case of `CCC1(c2ccccc2)C(=O)NCNC1=O` [Primidone, primidone], the “comparison of antiepileptic efficacy between monotherapy treatment groups” value ([3]; ANOVA) is reported as “did not indicate any significant differences”, the “duration of the ictus before treatment, median” value [3] is reported as 1.5 min and the “duration of the ictus before treatment, time range” value [3] is reported as 0.5 to 10 min. The “duration of the ictus during treatment, median” value ([3]; monotherapy) was 1.0 min, the “duration of the ictus during treatment, time range” value ([3]; monotherapy) was 0.5 to 10 min and the “% reduction of seizures in responders” value ([3]; monotherapy) was 75.1 ± 5.1%. For the same molecule, the “Seizure frequency before treatment, all dogs” value [3] was 1.75 seizures/month, the “Seizure frequency before treatment, without nonresponders” value [3] was 2.0 seizures/month and the “Seizure frequency during treatment, all dogs” value ([3]; monotherapy) was 0.39 seizures/month. For the same molecule, the “Seizure frequency during treatment, without nonresponders” value ([3]; monotherapy) was 0.29* seizures/month, the “dogs in which a seizure reduction was observed” value ([3]; monotherapy) was 19 of 26 and the “dogs that died or were euthanized” value ([3]; monotherapy) was 10. For the same molecule, the “dogs with focal seizures instead of grand mal seizures during treatment” value ([3]; monotherapy) was 2, the “dogs with reduced seizure number per cluster” value ([3]; monotherapy) was 5 out of ten and the “number of dogs with decreased duration of the ictus” value ([3]; monotherapy) was 2. For the same molecule, the “number of dogs with shortened postictal phase” value ([3]; monotherapy) was 5, the “owners reporting subjectively a decrease of seizure severity” value ([3]; monotherapy) was “ten of 22” and the “postictal phase during treatment, mean” value ([3]; monotherapy) was 4.5 h. For the same molecule, the “reduction of seizure number per cluster, mean” value ([3]; monotherapy) was 37.5%, the “decrease of the duration of the ictus” value ([3]; monotherapy, in the dogs with a decrease) was 30% and the “shortening of the postictal phase, mean” value ([3]; monotherapy) was 40%. The “dogs with unchanged or increased seizure severity” value ([3]; monotherapy) was 2.
